Experimental data published in publication PMC8130605 (RSC Medicinal Chemistry, 2021).

Assays:
THP1 cells = test: THP1 host cell cytotoxicity; format: cell-based
[1] = Mouse pharmacokinetic study; format: in vivo; conditions: after oral dosing 50 mg kg^−1

| SMILES | background cell cytotoxicity (in words) (THP1 cells) | compound in the plasma after 24 hours [1] |
| --- | --- | --- |
| CC(C)(C)Nc1c(-c2ccccn2)nc2c(OCc3ccccc3)cccn12 [Compound 2] | no background cell cytotoxicity |  |
| Cc1ccc2nc(-c3ccc(N(C)C)cc3)c(NC3CCCCC3)n2c1 [Compound 8] | no background cell cytotoxicity |  |
| COc1ccn2c(Nc3cc(F)cc(F)c3)c(-c3ccccn3)nc2c1 [Compound 23] |  | no compound observed |
